Like-named read-outs stand apart in the source and are kept apart here.

The nature of data set [1]: acid dissociation constant (pKa) in water. The source says: As used herein, pKa refers to an acid dissociation constant, i.e., an acid dissociation constant in water or an acid dissociation constant in acetonitrile.
The acid dissociation constant in water can be measured, for example, with reference to the method described in J. Chem. Res., Synop. […] Specifically, it can be measured by a combination of a spectrometer with potentiometry.

Another data set is described as follows: TG/DTA thermal analysis. The note with it: for 10% weight loss temperature: TG; for 10% weight loss temperature / Exothermic peak temperature in DTA measurement: air, 30° C. to 600° C., heating rate 10° C./min; for nature of the weight loss in TG/DTA: exothermic suggests decomposition reaction. Type of data set: physicochemical. The protocol: The measurement is performed in a temperature range of 30° C. to 600° C. at a heating rate of 10° C./min while introducing air at a flow rate of 200 mL/min using EXSTAR 6000 (manufactured by Seiko Instruments Inc.). As a gas chromatography mass spectrometer, 6890/5975 MSD (manufactured by Agilent Technologies, Inc.) was used. The following measurement conditions are used: column: DB-1 (15 m, diameter: 0.25 mm, membrane thickness: 0.1 μm); injection temperature: 280° C.; column temperature: initial temperature of 40° C., hold for 5 min, heated to 340° C. at the heating rate of 20° C./min, and hold at the same temperature; mass spectrometric unit: 5975MSD; MS detection mode: EI^+; quadrupole temperature: 150° C.; ion source temperature: 300° C.; mass scanning range: m/z 33-700; and calibration: PFTBA.
Ionic liquids obtained from Examples 2, 28, and 29 and Comparative Examples 16 and 17 were subjected to a TG measurement using EXSTAR 6000 (Seiko Instruments Inc.) (Examples 30 and 31, and Comparative Examples 18 and 19). Z-DOL was also subjected to the TG measurement (Comparative Example 20). Weight loss was measured while purging air in a temperature range of 30° C. to 600° C. at a heating rate of 10° C./min.
The TG/DTA measurement was performed in a temperature range of 30° C. to 600° C. at a heating rate of 10° C./min while introducing air at a flow rate of 200 mL/min using EXSTAR 6000 (manufactured by Seiko Instruments Inc.). As a gas chromatography mass spectrometer, 6890/5975 MSD (manufactured by Agilent Technologies, Inc.) was used. The following measurement conditions were used: column: DB-1 (15 m, diameter: 0.25 mm, membrane thickness: 0.1 μm); injection temperature: 280° C.; column temperature: initial temperature of 40° C., hold for 5 min, heated to 340° C. at the heating rate of 20° C./min, and hold at the same temperature; mass spectrometric unit: 5975MSD; MS detection mode: EI^+; quadrupole temperature: 150° C.; ion source temperature: 300° C.; mass scanning range: m/z 33-700; and calibration: PFTBA.

Data set [2] can be described thus: acid dissociation constant (pKa) in acetonitrile. The class given is physicochemical. The source says: […]. Note that, the pKa values in acetonitrile is described in, for example, Blackwell Scientific Publications, Oxford, 1990, and J. Org. Chem. 2011, Vol. 76, pp. 391-395.
Although the acid dissociation constant in acetonitrile is not described herein because it is described in J. Org. Chem. 1998, 63, p. 7868 or J. Org. Chem. 1997, 62, p. 8479, it can be obtained by dissolving an acid in acetonitrile, titrating the resultant with a base, and measuring a spectrum by means of a UV-vis spectrometer.

The conditions of data set [3]: cited from earlier work.

`CCCCCCCCCCCCCCCCCCN.O=C(O)C(F)(F)F` [Comparative ionic liquid 1, reference compound]: in data set [1] (in water), the “pKa of Bronsted acid” value is listed as 0.5.

On to `CCCCCCCCCCCCCCCCCCN.O=C(O)C(F)(F)C(F)(F)C(F)(F)C(F)(F)C(F)(F)C(F)(F)C(F)(F)F` [Comparative ionic liquid 2, reference compound], for which, in data set [1], the “pKa of Bronsted acid” value amounted to 2.5.

As to `CCCCCCCCCCCCCCCCCC(=O)O.CCCCCCCCCCCCCCCCCCN` [Comparative ionic liquid 3, reference compound], the “pKa of Bronsted acid” value in data set [1] (in water) worked out at 5.0.

As to `CCCCCCCCCCCCCCCCCCN.O=C(O)C(F)(F)C(F)(F)C(F)(F)C(F)(F)C(F)(F)C(F)(F)C(F)(F)F` [Comparative ionic liquid 6, reference compound], the “pKa of Bronsted base” value in data set [1] (in water) is on record as 10.7. Also, the “pKa of Bronsted acid” value in data set [1] (in water, listed as Comparative Example 16) is on record as 3.8. Further, the “10% weight loss temperature” value in the data set “TG/DTA thermal analysis” came out at 205 °C.

Consider `CCCCCCCCCCCCCCCCCCN.OCC(F)(F)C(F)(F)C(F)(F)C(F)(F)C(F)(F)C(F)(F)C(F)(F)F` [Comparative ionic liquid 7, reference compound], for which, in data set [1] (in water), the “pKa of Bronsted acid” value is 7-9, the “pKa of Bronsted base” value is listed as 10.7 and the “ΔpKa (pKa value of Bronsted base minus pKa value of Bronsted acid)” value is listed as at most 4. The “ΔpKa (pKa value of Bronsted base minus pKa value of Bronsted acid)” value in data set [1] (in water, listed as Comparative Example 17) was 1.7-3.7. For the same compound, in “TG/DTA thermal analysis”, the “10% weight loss temperature” value came to 62 °C.

`C1CCC2=NCCCN2CC1.O=S(=O)(O)C(F)(F)C(F)(F)C(F)(F)C(F)(F)C(F)(F)C(F)(F)C(F)(F)C(F)(F)F` [Comparative ionic liquid 8, DBU pentadecafluorooctane sulfonic acid salt, reference compound] yielded a ΔpKa in data set [2] of 23.6. In addition, in the data set “TG/DTA thermal analysis”, the “10% weight loss temperature” value amounted to 393 °C, the “Exothermic peak temperature in DTA measurement” value (from here on “Exothermic peak temperature”) stood at 432 °C and the “nature of the weight loss in TG/DTA” value is reported as “exothermic”.

Consider `C1CN=C2NCCCN2C1.O=S(=O)(O)C(F)(F)C(F)(F)C(F)(F)C(F)(F)C(F)(F)C(F)(F)C(F)(F)F` [Comparative ionic liquid 9, TBD pentadecafluoro sulfonic acid salt, reference compound], for which the ΔpKa in data set [2] is 24.8. Moreover, in “TG/DTA thermal analysis”, the “10% weight loss temperature” value is 371 °C, the “Exothermic peak temperature” value is 425 °C and the “nature of the weight loss in TG/DTA” value is recorded as “exothermic”.

Consider `C1CCC2=NCCCN2CC1` [DBU, 1,8-diazabicyclo(5,4,0)-undecene-7], for which, in data set [3] (in water, cyclic amidine base), the pKa value is listed as 12.5.

Compound `CCCCCCCCCCCCCCCCCCN.O=S(=O)(NS(=O)(=O)C(F)(F)F)C(F)(F)F` [Ionic liquid 1, n-octadecylamine-bistrifluoromethane sulfonylimide salt] registered a ΔpKa in data set [2] of 17.9. For the same compound, in “TG/DTA thermal analysis”, the “10% weight loss temperature” value came to 329 °C and the “nature of the weight loss in TG/DTA” value is given as “exothermic”.

Regarding `CCCCCCCCCCCCCCCCCCN.O=S(=O)(O)O` [Ionic liquid 3], the “pKa of Bronsted acid” value in data set [1] (in water) was −3.

With `CCCCCCCCCCCCCCCCCCN.CS(=O)(=O)O` [Ionic liquid 4], the “pKa of Bronsted acid” value in data set [1] (in water) is reported as −2.

As to `CCCCCCCCCCCCCCCCCCN.O=S(=O)(O)C(F)(F)C(F)(F)C(F)(F)C(F)(F)C(F)(F)C(F)(F)C(F)(F)C(F)(F)F` [Ionic liquid 10], in data set [1] (in water), the “pKa of Bronsted acid” value is −3.3 and the “pKa of Bronsted base” value amounted to 10.7. In addition, the “10% weight loss temperature” value in the data set “TG/DTA thermal analysis” is 327 °C.

Turning to `CCCCCCCCCCCCCCCC1CCCCN2CCCN=C12.O=S(=O)(O)C(F)(F)C(F)(F)C(F)(F)C(F)(F)C(F)(F)C(F)(F)C(F)(F)C(F)(F)F` [Ionic liquid 11], in data set [1] (in water), the “pKa of Bronsted acid” value is −3.3 and the “pKa of Bronsted base” value is listed as 12.5. In “TG/DTA thermal analysis” (DBU derivative instead of stearylamine as Bronsted base), the “increase of 10% weight loss temperature” value amounted to 45 °C. Further, the “10% weight loss temperature” value in “TG/DTA thermal analysis” came out at 372 °C. The “10% weight loss temperature higher than that of Z-DOL” value in “TG/DTA thermal analysis” (difference to Z-DOL) was at least 200 °C.

The compound `CCCCCCCCCCCCCCCCCCN.O=S(=O)(NS(=O)(=O)C(F)(F)C(F)(F)C(F)(F)C(F)(F)F)C(F)(F)C(F)(F)C(F)(F)C(F)(F)F` [Ionic liquid 13, n-octadecylamine-bisnonafluorobutane sulfonylimide salt] returned a ΔpKa in data set [2] of 18.3. Further, in “TG/DTA thermal analysis”, the “10% weight loss temperature” value stood at 331 °C and the “nature of the weight loss in TG/DTA” value is “exothermic”.

On to `CCCCCCCCCCCCCCCCCCN.O=S1(=O)NS(=O)(=O)C(F)(F)C(F)(F)C1(F)F` [Ionic liquid 14, n-octadecylamine-cyclo-hexafluoropropane-1,3-bis(sulfonyl)imide salt], for which the ΔpKa in data set [2] turned out to be 19.2. Besides, in the data set “TG/DTA thermal analysis”, the “10% weight loss temperature” value was 347 °C, the “Exothermic peak temperature” value amounted to 417 °C and the “nature of the weight loss in TG/DTA” value is recorded as “exothermic”.

In data set [2], `CCCCCCCCCCCCCCCCCCC1CCCCN2CCCN=C12.O=S(=O)(O)C(F)(F)C(F)(F)C(F)(F)C(F)(F)C(F)(F)C(F)(F)C(F)(F)C(F)(F)F` (stereo not drawn) [Ionic liquid 15, 6-n-octadecyl-1,8-diazabicyclo[5.4.0]-7-undecene (C18-DBU) pentadecafluorooctane sulfonic acid salt] returned a ΔpKa of 23.6. Further, in “TG/DTA thermal analysis”, the “10% weight loss temperature” value was found to be 384 °C and the “nature of the weight loss in TG/DTA” value is reported as “exothermic”.

`CCCCCCCCCCCCCCCCCCC1CCCCN2CCCN=C12.O=S1(=O)NS(=O)(=O)C(F)(F)C(F)(F)C1(F)F` (stereo not drawn) [Ionic liquid 16, C18-DBU cyclo-hexafluoropropane-1,3-bis(sulfonyl)imide salt] came in with a ΔpKa in data set [2] of 25.2. In “TG/DTA thermal analysis”, the “10% weight loss temperature” value was 386 °C, the “Exothermic peak temperature” value came out at 474 °C and the “nature of the weight loss in TG/DTA” value is recorded as “exothermic”.

`CCCCCCCCCCCCCCCCCCN1CCCN2CCCN=C12.O=S(=O)(O)C(F)(F)C(F)(F)C(F)(F)C(F)(F)C(F)(F)C(F)(F)C(F)(F)C(F)(F)F` [Ionic liquid 17, 7-n-octadecyl-1,5,7-triazabicyclo[4.4.0]-5-decene (C18-TBD) pentadecafluorooctane sulfonic acid salt] returned a ΔpKa in data set [2] of 24.8. In “TG/DTA thermal analysis”, the “10% weight loss temperature” value came out at 381 °C and the “nature of the weight loss in TG/DTA” value is reported as “exothermic”.

For the compound `CCCCCCCCCCCCCCCCCCN1CCCN2CCCN=C12.O=S1(=O)NS(=O)(=O)C(F)(F)C(F)(F)C1(F)F` [Ionic liquid 18, C18-TBD cyclo-hexafluoropropane-1,3-bis(sulfonyl)imide salt], the ΔpKa in data set [2] was determined as 26.4. Moreover, in the data set “TG/DTA thermal analysis”, the “10% weight loss temperature” value was found to be 380 °C and the “nature of the weight loss in TG/DTA” value is given as “exothermic”.

Consider `c1c[nH]cn1` [imidazole], for which the pKa value in data set [3] (solvent not stated) is 14.

One may read the pKa as the pH at which an ionisable group is half protonated. Consider `CCCCCCCCCCCCCCCCCCN` [octadecylamine], for which the pKa in data set [1] (water) turned out to be 10.7.

Turning to `O=C(O)C(F)(F)C(F)(F)C(F)(F)C(F)(F)C(F)(F)C(F)(F)C(F)(F)F` [perfluorooctanoic acid], the pKa in data set [1] worked out at 2.5.

For the compound `CCCCCCCCCCCCCCCCCC(=O)O` [stearic acid], the pKa in data set [1] (water) stood at 5.
